Read-outs that look alike come from different tables or passages of the source.
Key:
KRAS Q61H = KRAS Q61H (Homo sapiens, UniProt P01116+P62937, Q61H); assay: Disruption of BRAF RBD interaction with Ras (FRET / MOA assay, with Cyclophilin A); type: biochemical; details: KRAS Q61H; read-out: KRAS Q61H FRET data IC50
Procedure, shortened: (§1)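 IC50 reflects compound-driven Ras:Cyclophilin A ternary complex displacing BRAF RBD, read as lowered TR-FRET ratio relative to DMSO after Eu anti-His (10 nM) and APC anti-GST (50 nM) detection for 1.5 h. Prior incubation 3 h, 25° C, with 12.5 nM GMPPNP-loaded Ras, 50 nM BRAF RBD, 25 μM Cyclophilin A; top compound 30 μM.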

NRAS WT = NRAS WT (Homo sapiens, UniProt P01111+P62937); assay: as above; type: biochemical; details: NRAS WT; read-out: NRAS WT FRET data IC50
Sequence of NRAS WT (P01111 whole entry): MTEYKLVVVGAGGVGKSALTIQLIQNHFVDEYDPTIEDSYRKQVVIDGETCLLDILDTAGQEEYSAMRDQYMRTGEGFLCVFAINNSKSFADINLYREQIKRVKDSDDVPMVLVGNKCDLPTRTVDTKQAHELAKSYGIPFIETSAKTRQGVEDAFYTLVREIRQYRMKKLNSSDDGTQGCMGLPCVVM
Sequence of NRAS WT (P62937 whole entry): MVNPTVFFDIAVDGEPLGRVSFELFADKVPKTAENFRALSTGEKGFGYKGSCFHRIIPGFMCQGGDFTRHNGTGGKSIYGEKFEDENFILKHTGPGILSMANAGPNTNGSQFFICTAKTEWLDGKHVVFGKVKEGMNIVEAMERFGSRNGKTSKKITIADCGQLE
Procedure, shortened: as §1

NRAS Q61K = NRAS Q61K (Homo sapiens, UniProt P01111+P62937, Q61K); assay: as above; type: biochemical; details: NRAS Q61K; read-out: NRAS Q61K FRET data IC50
Sequence of NRAS Q61K (P01111 whole entry Q61K): as the sequence (P01111 whole entry) above, with Q61K counted along it
Sequence of NRAS Q61K (P62937 whole entry): as the sequence (P62937 whole entry) above
Procedure, shortened: as §1

NRAS Q61R = NRAS Q61R (Homo sapiens, UniProt P01111+P62937, Q61R); assay: as above; type: biochemical; details: NRAS Q61R; read-out: NRAS Q61R FRET data IC50
Sequence of NRAS Q61R (P01111 whole entry Q61R): as the sequence (P01111 whole entry) above, with Q61R counted along it
Sequence of NRAS Q61R (P62937 whole entry): as the sequence (P62937 whole entry) above
Procedure, shortened: as §1

Capan-1 (K-Ras G12V) = assay: CellTiter-Glo cell viability assay, 5-day treatment; type: cell-based; details: Homo sapiens, CAPAN-1, 120 h
Procedure, shortened: (§2)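 Seeded cells received test compound by direct dispensing. On day 5 the plates sat at room temperature approximately 30 minutes, then luminescence was measured. Data were normalized to DMSO and curve-fitted with four parameters.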

NCI-H358 (K-Ras G12C) = assay: as above; type: cell-based; details: Homo sapiens, NCI-H358, 120 h, 5-day treatment; read-out: H358 Cell Viability assay data (K-Ras G12C, IC50)
Procedure, shortened: as §2

KRAS G13D = KRAS G13D (Homo sapiens, UniProt P01116+P62937, G13D); assay: Disruption of BRAF RBD interaction with Ras (FRET / MOA assay, with Cyclophilin A); type: biochemical
Sequence of KRAS G13D (P01116 1-169 isoform P01116-2 G13D limits assumed): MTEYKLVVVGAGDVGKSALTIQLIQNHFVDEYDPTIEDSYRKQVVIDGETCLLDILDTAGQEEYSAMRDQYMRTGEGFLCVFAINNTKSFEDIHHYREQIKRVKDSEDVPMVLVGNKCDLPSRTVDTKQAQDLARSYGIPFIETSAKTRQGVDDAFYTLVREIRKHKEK
Sequence of KRAS G13D (P62937 whole entry): as the sequence (P62937 whole entry) above
Procedure, shortened: (§3)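 IC50 values reflect loss of K-Ras binding to BRAF RBD, read as a lowered TR-FRET ratio compared with DMSO, driven by compound-mediated K-Ras:Cyclophilin A complex formation. Compound top dose 30 μM final, 3-fold steps, 3 h incubation at 25 °C before a 1.5 h antibody step.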

KRAS G13C = KRAS G13C (Homo sapiens, UniProt P01116+P62937, G13C); assay: as above; type: biochemical
Sequence of KRAS G13C (P01116 1-169 isoform P01116-2 G13C): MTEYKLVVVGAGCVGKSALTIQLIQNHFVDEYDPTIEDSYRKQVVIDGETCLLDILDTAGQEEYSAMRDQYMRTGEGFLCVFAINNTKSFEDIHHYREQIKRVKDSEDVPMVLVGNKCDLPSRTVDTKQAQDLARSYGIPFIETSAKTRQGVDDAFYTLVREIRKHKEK
Sequence of KRAS G13C (P62937 whole entry): as the sequence (P62937 whole entry) above
Procedure, shortened: as §3

KRAS G12V = KRAS G12V (Homo sapiens, UniProt P01116+P62937, G12V); assay: as above; type: biochemical
Sequence of KRAS G12V (P01116 1-169 isoform P01116-2 G12V limits assumed): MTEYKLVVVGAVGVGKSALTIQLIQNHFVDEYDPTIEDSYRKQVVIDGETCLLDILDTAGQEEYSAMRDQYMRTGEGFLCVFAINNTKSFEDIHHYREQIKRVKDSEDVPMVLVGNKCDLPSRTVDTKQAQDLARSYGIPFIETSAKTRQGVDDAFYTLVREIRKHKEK
Sequence of KRAS G12V (P62937 whole entry): as the sequence (P62937 whole entry) above
Procedure, shortened: as §3

KRAS G12S = KRAS G12S (Homo sapiens, UniProt P01116+P62937, G12S); assay: as above; type: biochemical
Sequence of KRAS G12S (P01116 1-169 isoform P01116-2 G12S limits assumed): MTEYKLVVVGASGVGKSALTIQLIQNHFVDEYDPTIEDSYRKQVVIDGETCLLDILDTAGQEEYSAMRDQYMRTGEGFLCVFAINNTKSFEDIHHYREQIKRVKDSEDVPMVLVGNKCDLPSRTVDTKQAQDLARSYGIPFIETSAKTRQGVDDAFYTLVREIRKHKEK
Sequence of KRAS G12S (P62937 whole entry): as the sequence (P62937 whole entry) above
Procedure, shortened: as §3

KRAS WT = KRAS WT (Homo sapiens, UniProt P01116+P62937); assay: as above; type: biochemical
Sequence of KRAS WT (P01116 1-169 isoform P01116-2 limits assumed): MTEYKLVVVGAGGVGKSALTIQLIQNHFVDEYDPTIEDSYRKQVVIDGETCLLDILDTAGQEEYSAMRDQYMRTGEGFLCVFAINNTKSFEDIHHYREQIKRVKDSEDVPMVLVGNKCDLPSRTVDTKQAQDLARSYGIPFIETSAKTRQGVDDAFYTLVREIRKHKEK
Sequence of KRAS WT (P62937 whole entry): as the sequence (P62937 whole entry) above
Procedure, shortened: as §3

KRAS G12D = KRAS G12D (Homo sapiens, UniProt P01116+P62937, G12D); assay: as above; type: biochemical
Sequence of KRAS G12D (P01116 1-169 isoform P01116-2 G12D limits assumed): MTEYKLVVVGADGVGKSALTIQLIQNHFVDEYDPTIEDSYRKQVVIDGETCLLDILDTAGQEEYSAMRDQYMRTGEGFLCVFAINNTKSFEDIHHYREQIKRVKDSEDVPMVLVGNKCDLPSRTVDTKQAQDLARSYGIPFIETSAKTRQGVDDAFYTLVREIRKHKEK
Sequence of KRAS G12D (P62937 whole entry): as the sequence (P62937 whole entry) above
Procedure, shortened: as §3

KRAS G12C = KRAS G12C (Homo sapiens, UniProt P01116+P62937, G12C); assay: as above; type: biochemical
Sequence of KRAS G12C (P01116 1-169 isoform P01116-2 G12C): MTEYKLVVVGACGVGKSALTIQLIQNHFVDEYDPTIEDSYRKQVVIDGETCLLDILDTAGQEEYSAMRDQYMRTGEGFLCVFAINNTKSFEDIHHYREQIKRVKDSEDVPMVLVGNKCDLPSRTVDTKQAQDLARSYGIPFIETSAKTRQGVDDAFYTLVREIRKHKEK
Sequence of KRAS G12C (P62937 whole entry): as the sequence (P62937 whole entry) above
Procedure, shortened: as §3

NRAS G12C = NRAS G12C (Homo sapiens, UniProt P01111+P62937, G12C); assay: as above; type: biochemical
Sequence of NRAS G12C (P01111 whole entry G12C): as the sequence (P01111 whole entry) above, with G12C counted along it
Sequence of NRAS G12C (P62937 whole entry): as the sequence (P62937 whole entry) above

[1] = 5-day treatment, read-out: Capan-1 Cell Viability assay data (K-Ras G12V, IC50)
[2] = KRAS G13D, read-out: KRAS G13D FRET data IC50
[3] = read-out: KRAS G13C FRET data, IC50
[4] = KRAS G12V, read-out: KRAS G12V FRET data IC50
[5] = read-out: KRAS G12S FRET data, IC50
[6] = KRAS WT, read-out: KRAS WT FRET data IC50
[7] = read-out: KRAS G12D FRET data, IC50
[8] = read-out: KRAS G12C FRET data, IC50
[9] = NRAS G12C, read-out: NRAS G12C FRET data IC50

Sequence of KRAS Q61H (P01116 1-169 isoform P01116-2 Q61H limits assumed): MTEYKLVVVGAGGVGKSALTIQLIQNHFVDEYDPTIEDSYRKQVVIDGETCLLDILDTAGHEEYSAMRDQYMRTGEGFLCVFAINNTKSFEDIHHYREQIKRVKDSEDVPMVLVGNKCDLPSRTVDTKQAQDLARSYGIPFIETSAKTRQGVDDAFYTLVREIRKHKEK
Sequence of KRAS Q61H (P62937 whole entry): as the sequence (P62937 whole entry) above

SMILES	IC50 (KRAS Q61H) [µM]	IC50 (NRAS WT) [µM]	IC50 (NRAS Q61K) [µM]	IC50 (NRAS Q61R) [µM]	IC50 (NCI-H358 (K-Ras G12C)) [µM]	IC50 (KRAS G13D; [2]) [µM]	IC50 (KRAS G13C; [3]) [µM]	IC50 (KRAS G12V; [4]) [µM]	IC50 (KRAS G12S; [5]) [µM]	IC50 (KRAS WT; [6]) [µM]	IC50 (KRAS G12D; [7]) [µM]	IC50 (KRAS G12C; [8]) [µM]	IC50 (NRAS G12C; [9]) [µM]	IC50 (Capan-1 (K-Ras G12V); [1]) [µM]	also measured
CCn1c(-c2cccnc2[C@H](C)OC)c2c3cc(ccc31)-c1csc(n1)C[C@H](NC(=O)[C@H](C(C)C)N(C)C(=O)[C@@H]1CCN(C)[C@@H]1c1ccccc1)C(=O)N1CCC[C@H](N1)C(=O)OCC(C)(C)C2 [Example A464]	0.1 to 1	1 to 10	1 to 10	1 to 10	1 to 10	1 to 10	1 to 10	1 to 10	1 to 10	1 to 10	1 to 10	1 to 10	1 to 10		IC50 (Capan-1 (K-Ras G12V); read-out: Capan-1 Cell Viability assay data (K-Ras G12V, IC50, uM)): 1 to 10 µM
CCn1c(-c2cccnc2[C@H](C)OC)c2c3cc(ccc31)-c1cc(O)cc(c1)C[C@H](NC(=O)[C@H](C(C)C)N(C)C(=O)[C@H]1C[C@@H]1O)C(=O)N1CCC[C@H](N1)C(=O)OCC(C)(C)C2 (single isomer, unassigned) [Example A346]	0.01 to 0.1	0.01 to 0.1	0.1 to 1	0.1 to 1	0.1 to 1	0.1 to 1	0.01 to 0.1	0.1 to 1	0.1 to 1	0.01 to 0.1	0.1 to 1	0.01 to 0.1	0.01 to 0.1	0.1 to 1	
CCn1c(-c2cccnc2[C@H](C)OC)c2c3cc(ccc31)-c1csc(n1)C[C@H](NC(=O)[C@H](C(C)C)N(C)C(=O)N1CC[C@]13CCCNC3)C(=O)N1CCC[C@H](N1)C(=O)OCC(C)(C)C2 [Example A434]	0.01 to 0.1	0.01 to 0.1	0.1 to 1	0.1 to 1		0.1 to 1	0.1 to 1	1 to 10	0.1 to 1	0.1 to 1	0.1 to 1	0.1 to 1	0.1 to 1	1 to 10	

Second part, led by results:

IC50 (KRAS Q61H) [µM]	IC50 (NRAS WT) [µM]	IC50 (NRAS Q61K) [µM]	IC50 (NRAS Q61R) [µM]	IC50 (NCI-H358 (K-Ras G12C)) [µM]	IC50 (KRAS G13D; [2]) [µM]	IC50 (KRAS G13C; [3]) [µM]	IC50 (KRAS G12V; [4]) [µM]	IC50 (KRAS G12S; [5]) [µM]	IC50 (KRAS WT; [6]) [µM]	IC50 (KRAS G12D; [7]) [µM]	IC50 (KRAS G12C; [8]) [µM]	IC50 (NRAS G12C; [9]) [µM]	SMILES	IC50 (Capan-1 (K-Ras G12V); [1]) [µM]	also measured
0.01 to 0.1	0.1 to 1	0.1 to 1	0.1 to 1	0.01 to 0.1	0.1 to 1	0.1 to 1	1 to 10	0.1 to 1	0.1 to 1	0.1 to 1	0.1 to 1	0.1 to 1	CCn1c(-c2cccnc2[C@H](C)OC)c2c3cc(ccc31)-c1csc(n1)C[C@H](NC(=O)[C@H](C(C)C)N(C)C(=O)N1CC[C@@H]1CN(C)C)C(=O)N1CCC[C@H](N1)C(=O)OCC(C)(C)C2 [Example A502]	0.1 to 1	
0.1 to 1	0.1 to 1	0.1 to 1	1 to 10		1 to 10	0.1 to 1	0.1 to 1	0.1 to 1	0.1 to 1	1 to 10	0.1 to 1	0.1 to 1	CCn1c(-c2cccnc2[C@H](C)OC)c2c3cc(ccc31)-c1csc(n1)C[C@H](NC(=O)[C@@H]1CCCO1)C(=O)N1CCC[C@H](N1)C(=O)OCC(C)(C)C2 [Example A331]	1 to 10	
0.1 to 1	0.1 to 1	0.1 to 1	0.1 to 1										CCn1c(-c2cccnc2[C@H](C)OC)c2c3cc(ccc31)-c1csc(n1)C[C@H](NC(=O)[C@H](C(C)C)N(C)C(=O)N1CC(N)(C#N)C1)C(=O)N1CCC[C@H](N1)C(=O)OCC(C)(C)C2 [Example A456]	1 to 10	IC50 (KRAS G13D; KRAS G13D FRET data IC50, KRAS G13D): 1 to 10 µM; IC50 (KRAS G13C; KRAS G13C FRET data, IC50): 0.1 to 1 µM; IC50 (KRAS G12V; KRAS G12V FRET data IC50, KRAS G12V): 0.1 to 1 µM; IC50 (KRAS G12S; KRAS G12S FRET data, IC50): 0.1 to 1 µM; IC50 (KRAS WT; KRAS WT FRET data IC50, KRAS WT): 0.1 to 1 µM; IC50 (KRAS G12D; KRAS G12D FRET data, IC50): 1 to 10 µM; IC50 (KRAS G12C; KRAS G12C FRET data, IC50): 0.1 to 1 µM; IC50 (NRAS G12C; NRAS G12C FRET data IC50, NRAS G12C): 0.1 to 1 µM
0.1 to 1	0.1 to 1	0.1 to 1	1 to 10		1 to 10	0.1 to 1	0.1 to 1	1 to 10	1 to 10	1 to 10	0.1 to 1	0.1 to 1	CCn1c(-c2cccnc2[C@H](C)OC)c2c3cc(ccc31)-c1csc(n1)C[C@H](NC(=O)c1ccccn1)C(=O)N1CCC[C@H](N1)C(=O)OCC(C)(C)C2 [Example A366]	1 to 10	

Reference: patent publication US20230233569A1 (Revolution Medicines, Inc., priority 2020, published 2023)
